Data: article PMC4140839 (PLoS ONE, 2014)

molecular target: T1, RsASML (Ralstonia pseudosolanacearum, UniProt Q8XPM9); test: biochemical
T1 construct: gene RSp1609
T1 sequence (Q8XPM9 30-476 limits assumed): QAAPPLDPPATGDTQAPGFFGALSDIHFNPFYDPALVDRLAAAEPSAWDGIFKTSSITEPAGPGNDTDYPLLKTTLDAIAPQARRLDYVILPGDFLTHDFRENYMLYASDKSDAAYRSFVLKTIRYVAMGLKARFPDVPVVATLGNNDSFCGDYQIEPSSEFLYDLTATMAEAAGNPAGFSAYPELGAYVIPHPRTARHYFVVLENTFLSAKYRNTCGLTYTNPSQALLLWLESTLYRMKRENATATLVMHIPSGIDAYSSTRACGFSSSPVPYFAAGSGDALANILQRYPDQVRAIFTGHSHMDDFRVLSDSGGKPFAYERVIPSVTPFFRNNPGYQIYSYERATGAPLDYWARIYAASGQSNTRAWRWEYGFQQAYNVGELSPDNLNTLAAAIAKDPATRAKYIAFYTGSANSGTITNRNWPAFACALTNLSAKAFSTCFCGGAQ

SMILES	IC50 [µM]
Nc1ncnc2c1ncn2[C@@H]1O[C@H](COP(=O)(O)OP(=O)(O)O)[C@@H](O)[C@H]1O [ADP]	0.0705
Nc1ncnc2c1ncn2[C@@H]1O[C@H](COP(=O)(O)O)[C@@H](O)[C@H]1O [AMP]	0.075
Nc1ncnc2c1ncn2[C@@H]1O[C@H](COP(=O)(O)OP(=O)(O)OP(=O)(O)O)[C@@H](O)[C@H]1O [ATP]	0.0586
Nc1ncnc2c1ncn2[C@@H]1O[C@H](CO)[C@@H](O)[C@H]1O [Adenosine]	243
Nc1ccn([C@@H]2O[C@H](COP(=O)(O)OP(=O)(O)OP(=O)(O)O)[C@@H](O)[C@H]2O)c(=O)n1 [CTP]	1500
Nc1nc2c(ncn2[C@@H]2O[C@H](COP(=O)(O)OP(=O)(O)OP(=O)(O)O)[C@@H](O)[C@H]2O)c(=O)[nH]1 [GTP]	44.2
O=P(O)(O)OC[C@H](O)CO [L-α-glycerolphosphate]	746
C[N+](C)(C)CCOP(=O)([O-])OC[C@H](O)CO [L-α-glycerolphosphocholine]	64.6
NC(=O)c1ccc[n+]([C@@H]2O[C@H](COP(=O)(O)OP(=O)(O)OC[C@H]3O[C@@H](n4cnc5c(N)ncnc54)[C@H](O)[C@@H]3O)[C@@H](O)[C@H]2O)c1 [NAD^+]	0.0663
O=P(O)(O)O [Phosphate]	265
C[N+](C)(C)CCOP(=O)([O-])O [Phosphocholine]	4430
Cc1cn([C@H]2C[C@H](O)[C@@H](COP(=O)(O)O)O2)c(=O)[nH]c1=O [TMP]	35.9
Cc1cn([C@H]2C[C@H](O)[C@@H](COP(=O)(O)OP(=O)(O)OP(=O)(O)O)O2)c(=O)[nH]c1=O [TTP]	201
O=c1ccn([C@@H]2O[C@H](COP(=O)(O)OP(=O)(O)OP(=O)(O)O)[C@@H](O)[C@H]2O)c(=O)[nH]1 [UTP]	1360
NC(=O)C1=CN([C@@H]2O[C@H](COP(=O)(O)OP(=O)(O)OC[C@H]3O[C@@H](n4cnc5c(N)ncnc54)[C@H](OP(=O)(O)O)[C@@H]3O)[C@@H](O)[C@H]2O)C=CC1 [β-NADPH]	52.1
